According to patent publication US7435727B2, “Method for isolating an intestinal cholesterol binding protein” (Sanofi-Aventis Deutschland GmbH, priority 2002, dated 2008):

Experiments:
[1] = system: 145 kDa binding protein for cholesterol absorption inhibitors; assay: Photoaffinity labeling of small intestinal BBMV with [3H]C-1 in the presence of competitor; conditions: rabbit small intestinal BBMV, increasing concentrations of competitor
Procedure: 8 Samples of rabbit ileal brush border membrane vesicles (250 μg of protein) were incubated with 66 nM (0.3 μCi) of [^3H]C-1 in 10 mM Tris/Hepes buffer (pH 7.4)/100 mM NaCl/100 mM mannitol for 30 min at 20° C. in the dark. After irradiation for 30 sec at 254 nm in a Rayonet RPR 100 photochemical reactor equipped with 4 RPR 2537 Å lamps (The Southern Ultraviolet Company, Hamden, Conn., USA) the samples were collected and after centrifugation the membrane vesicles were resuspended in 2 ml 10 mM Tris/Hepes buffer (pH 7.4)/300 mM mannitol and centrifugated after 20 min at 20° C. This procedure was repeated three times. The resulting pellet was solubilized with 2 ml “solubilization buffer”. After centrifugation, a 40 μl aliquot of the supernatant was removed and analyzed by SDS PAGE and subsequent slicing of the gel for incorporation of radioactivity into membrane proteins.
(§1) For a one-step purification of the target-protein for cholesterol absorption inhibitors we have coupled the biotin-containing photolabile group N-(biotinyl)-4-azidophenyl alanine via a spacer to the para-position of the N-phenyl or benzylamino ring of 2-azetidinone cholesterol absorption inhibitors.

[2] = system: 145 kDa binding protein for cholesterol absorption inhibitors; assay: Photoaffinity labeling with biotin-tagged C-4 and extraction with streptavidin beads; design: species or system rabbit
Procedure: 10 Samples of rabbit ileal brush border membrane vesicles (200 µg of protein) were incubated with 200 μM of the biotin-tagged cholesterol inhibitor C-4 in 10 mM Tris/Hepes buffer (pH 7.4)/100 mM NaCl/100 mM mannitol for 30 min in the dark at 20° C. followed by irradiation at 254 nm for 30 sec in a Rayonet RPR-100 photochemical reactor equipped with 4 RPR 2537 Å-lamps. After collecting, the vesicles were washed 3 times with 2 ml Tris/Hepes buffer (pH 7.4)/300 mM mannitol. The final pellet was suspended in 2 ml of “solubilization buffer” for 1 hour at 4° C. After centrifugation, the clear supernatant was mixed with 0.5 ml of streptavidin-agarose beads and kept under stirring at 4° C. for 2 hours. After centrifugation, the beads were incubated with 2 ml 10 mM Tris/Hepes buffer (pH 7.4)/300 mM mannitol/1% n-octylglucoside/4 mM PMSF/4 mM iodacetamide/4 mM EDTA/for 10 min at 4° C. followed by centrifugation. After repeating this procedure twice, proteins were eluted from the streptavidin-agarose beads with 3 portions a 2 ml of the above buffer containing 5 mM biotin. From all eluates aliquots were removed for the determination of the enzymatic activity of aminopeptidase N and sucrase and for analysis by SDS-PAGE. For final purification the biotin eluates containing the covalently modified 145 kDa binding protein for cholesterol absorption inhibitors was achieved by preparative SDS gel electrophoresis as described above.
Rabbit small intestinal BBMV were incubated with 200 μM of C-4 and crosslinking was achieved by ultraviolet irradiation at 254 nm. After solubilization the covalently modified proteins containing the biotin-tagged 2-azetidinone cholesterol absorption inhibitors were extracted with streptavidin-beads. After intensive washing bound proteins were eluted with a 10 mM solution of biotin and analyzed by SDS-PAGE. […] Therefore, the 145 kDa binding protein could only be purified from those anatomical sites where intestinal cholesterol absorption occurs, the duodenum, jejunum and ileum. […]

[3] = system: intestinal cholesterol absorption; assay: Inhibition of intestinal cholesterol absorption (modified Zilversmit/Hughes method); assay type: in vivo; conditions: NMRI mice, application of the biotin-tagged photoaffinity label
Procedure: Intestinal cholesterol absorption was determined by a modification of the Zilversmit/Hughes method. Male NMRI mice (Charles River Deutschland GmbH, Salzfeld, Germany) kept on regular chow (Altronin®, Lage, Germany) were starved for 12 hours. Then, 0.5 ml of a solution of 0.5% methylcellulose/5% Solutol (BASF, Ludwigshafen, Germany) as vehicle with or without 3 mg of the respective cholesterol absorption inhibitor were applied by gavage to each animal followed by 0.25 ml of Intralipid® (Pharmacia & Upjohn, Erlangen, Germany) solution containing 0.24 μCi [^14C]cholesterol and 0.25 μCi [^3H]sitosterol. The animals (five mice per group) were kept on metabolism cages and feces were collected. After 24 hours the animals were killed and the radioactivity in the feces and the liver was determined by combustion analysis.
as §1

Structure (SMILES)	extent of labeling of the 145 kDa-protein by [3H]C-1 [1]	145 kDa protein retarded by streptavidin beads after labeling of membranes from other organs ([2]; BBMV from stomach, cecum, colon, rectum, kidney, liver or adipocytes)	proteins retained by the streptavidin-beads after crosslinking ([2]; rabbit small intestinal BBMV, 200 μM C-4, ultraviolet irradiation at 254 nm, SDS-PAGE)	intestinal cholesterol absorption [3]	amount of 145 kDa protein extractable with streptavidin beads ([2]; competitor present during photolabeling with C-4, 200 μM for cholesterol absorption inhibitors)
COc1ccc(C2C(CC[C@H](O)c3ccccc3)C(=O)N2c2ccc(NC(=O)CCCCNC(=O)C(Cc3ccc(N=[N+]=[N-])cc3)NC(=O)CCCCC3SCC4NC(=O)NC43)cc2)cc1 (some centres unmarked) [C-4, 5-(2-Oxo-hexahydro-thieno[3,4-d]imidazol-6-yl)-pentanoic acid-[2-(4-azido-phenyl)-1-(4-{4-[3-(3-hydroxy-3-phenyl-propyl)-2-(4-methoxy-phenyl)4-oxo-azetidin-1-yl]-phenylcarbamoyl}-butylcarbamoyl)-ethyl]-amid]	concentration-dependent decrease	no 145 kDa protein was retarded by streptavidin beads	Predominantly one protein of Mr 145 kDa was retained	dose-dependently inhibited	–
O=C1[C@H](CC[C@H](O)c2ccc(F)cc2)[C@@H](c2ccc(O)cc2)N1c1ccc(F)cc1 [Ezetimibe, reference compound]	–	–	–	–	reduced
